From ChEMBL document CHEMBL4145522, “Design, synthesis and biological evaluation of non-secosteriodal vitamin D receptor ligand bearing double side chain for the treatment of chronic pancreatitis” (Eur J Med Chem, 2018)
Activity calls are given as the source filed them. The rule behind the calls is not given here.

How the values were obtained:
Rattus norvegicus [1] = species on record: Rattus norvegicus; assay: (§1) Antifibrotic activity against TGFbeta1 stimulated rat LTC-14 cells assessed as inhibition of collagen 1 synthesis at 0.5 uM after 24 hrs by ELISA relative to calcipotriol; type: functional
Rattus norvegicus [2] = species on record: Rattus norvegicus; assay: Antifibrotic activity against TGFbeta1 stimulated rat LTC-14 cells assessed as inhibition of alpha-SMA level at 500 nM after 24 hrs by Western blot; type: functional
Mus musculus [3] = assay: Antifibrotic activity in caerulein induced chronic pancreatic C57BL/6J mouse model assessed as inhibition of alpha-SMA expression in interstitial area of pancreas tissue at 0.5 mg/kg, po administered via gavage treated for 5 times per week measured after 3 days by immunohistochemistry analysis; type: functional, organism-based
[4] = MRT in C57BL/6J mouse at 20 mg/kg, po by HPLC analysis; type: ADME, organism-based; conditions: in vivo
Rattus norvegicus [5] = species on record: Rattus norvegicus; assay: Antifibrotic activity against TGFbeta1 stimulated rat LTC-14 cells assessed as inhibition of collagen 1 alpha 1 mRNA expression at 500 nM after 24 hrs by RT-qPCR analysis; type: functional
[6] = MRT in C57BL/6J mouse at 10 mg/kg, iv by HPLC analysis; type: ADME, organism-based; conditions: in vivo
[7] = AUC (0 to infinity) in C57BL/6J mouse at 20 mg/kg, po by HPLC analysis; type: ADME, organism-based; design: dose 20 mg/kg, route oral, time infinity; conditions: in vivo
Mus musculus [8] = assay: Toxicity in caerulein induced chronic pancreatic C57BL/6J mouse model assessed as change in serum calcium levels at 0.5 mg/kg, po administered via gavage treated for 5 times per week measured after 3 days; type: organism-based; conditions: in vivo, 72 h
Rattus norvegicus [9] = species on record: Rattus norvegicus; assay: Antifibrotic activity against TGFbeta1 stimulated rat LTC-14 cells assessed as inhibition of alpha-SMA mRNA expression at 500 nM after 24 hrs by RT-qPCR analysis; type: functional
[10] = as §1; type: functional; conditions: LTC-14, 24 h
Mus musculus [11] = assay: Antifibrotic activity in caerulein induced chronic pancreatic C57BL/6J mouse model assessed as inhibition of pancreas lesions at 0.5 mg/kg, po administered via gavage treated for 5 times per week measured after 3 days by hematoxylin and eosin staining based histopathological analysis; type: functional, organism-based
[12] = Clearance in C57BL/6J mouse at 20 mg/kg, po by HPLC analysis; type: ADME, organism-based; conditions: in vivo
[13] = Half life in C57BL/6J mouse at 20 mg/kg, po by HPLC analysis; type: ADME, organism-based; conditions: in vivo
[14] = AUC (0 to infinity) in C57BL/6J mouse at 10 mg/kg, iv by HPLC analysis; type: ADME, organism-based; design: dose 10 mg/kg, time infinity, route intravenous; conditions: in vivo
Mus musculus [15] = assay: Antifibrotic activity in caerulein induced chronic pancreatic C57BL/6J mouse model assessed as inhibition of collagen deposition at 0.5 mg/kg, po administered via gavage treated for 5 times per week measured after 3 days by Masson's trichrome staining based histopathological analysis; type: functional, organism-based
[16] = Clearance in C57BL/6J mouse at 10 mg/kg, iv by HPLC analysis; type: ADME, organism-based; conditions: in vivo
[17] = Oral bioavailability in C57BL/6J mouse at 20 mg/kg by HPLC analysis; type: ADME, organism-based; conditions: in vivo
[18] = Half life in C57BL/6J mouse at 10 mg/kg, iv by HPLC analysis; type: ADME, organism-based; conditions: in vivo
Rattus norvegicus [19] = species on record: Rattus norvegicus; assay: Antifibrotic activity against TGFbeta1 stimulated rat LTC-14 cells assessed as inhibition of collagen 1 level at 500 nM after 24 hrs by Western blot; type: functional
Mus musculus [20] = assay: Toxicity in caerulein induced chronic pancreatic C57BL/6J mouse model assessed as change in body weight at 0.5 mg/kg, po administered via gavage treated for 5 times per week measured after 3 days; type: organism-based; conditions: in vivo, 72 h
[21] = biological target: T1, Vitamin D3 receptor (Homo sapiens) (UniProt P11473); assay: Transactivation of VDR (unknown origin) expressed in HEK293 cells harboring pENTER-CMV-human RXRalpha after 24 hrs by luciferase reporter gene assay; type: cell-based
T1 sequence (whole entry): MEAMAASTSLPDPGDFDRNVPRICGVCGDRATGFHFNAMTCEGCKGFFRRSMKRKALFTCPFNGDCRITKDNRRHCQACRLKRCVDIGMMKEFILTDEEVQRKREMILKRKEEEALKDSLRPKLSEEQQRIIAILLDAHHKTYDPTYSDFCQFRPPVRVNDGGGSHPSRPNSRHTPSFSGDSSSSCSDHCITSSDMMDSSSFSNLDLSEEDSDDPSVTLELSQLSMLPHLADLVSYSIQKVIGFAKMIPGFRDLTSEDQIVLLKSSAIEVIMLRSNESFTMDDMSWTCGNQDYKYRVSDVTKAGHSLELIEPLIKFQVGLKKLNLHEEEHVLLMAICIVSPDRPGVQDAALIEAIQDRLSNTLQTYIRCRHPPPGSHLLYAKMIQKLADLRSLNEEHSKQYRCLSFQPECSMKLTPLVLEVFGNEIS

[22] = biological target: T1, Vitamin D3 receptor (Homo sapiens); assay: Transactivation of VDR (unknown origin) expressed in HEK293 cells harboring pENTER-CMV-human RXRalpha at 10^-8M to 10^-6M after 24 hrs by luciferase reporter gene assay; type: cell-based
Mus musculus [23] = assay: Toxicity in caerulein induced chronic pancreatic C57BL/6J mouse model assessed as reduction in body weight at 0.5 mg/kg, po administered via gavage treated for 5 times per week measured after 3 days; type: organism-based; conditions: in vivo, 72 h
Mus musculus [24] = assay: Toxicity in caerulein induced chronic pancreatic C57BL/6J mouse model assessed as serum calcium levels at 0.5 mg/kg, po administered via gavage treated for 5 times per week measured after 3 days (reference value: 0.25 umol/ml); type: organism-based; conditions: in vivo, 72 h

Row | Structure (SMILES) | inhibition (Rattus norvegicus [1]) | inhibition (Rattus norvegicus [2]) | inhibition at 0.5 µM [10] [%] | inhibition (Rattus norvegicus [19]) | further results
1 | CCC(CC)(c1ccc(OCCCCCC(=O)O)c(C)c1)c1ccc(OCC(O)C(C)(C)C)c(OCC(O)C(C)(C)C)c1 (stereo not drawn) | inactive |  |  |  | 
2 | CCC(CC)(c1ccc(OCCCCC(=O)O)c(C)c1)c1ccc(OCC(O)C(C)(C)C)c(OCC(O)C(C)(C)C)c1 (stereo not drawn) | inactive |  |  |  | 
3 | CCC(CC)(c1ccc(OCCCO)c(C)c1)c1ccc(OCC(O)C(C)(C)C)c(OCC(O)C(C)(C)C)c1 (stereo not drawn) |  | Active | 172 | Active | inhibition (Mus musculus [3]): Active; MRT [4]: 6.59 h; inhibition (Rattus norvegicus [5]): Active; MRT [6]: 4.65 h; AUC(0-inf) [7]: 20600 ng·h/mL; Activity (Mus musculus [8]): Non-Toxic; inhibition (Rattus norvegicus [9]): Active; inhibition (Mus musculus [11]): Active; CL/F [12]: 20.2 mL/min; half-life [13]: 4.12 h; AUC(0-inf) [14]: 32600 ng·h/mL; inhibition (Mus musculus [15]): Active; clearance [16]: 5.17 mL/min; bioavailability [17]: 31.6%; half-life [18]: 2.66 h; Activity (Mus musculus [20]): Non-Toxic; Activity [21]: Dose-dependent effect
4 | CCC(CC)(c1ccc(OCCCCCCO)c(C)c1)c1ccc(OCC(O)C(C)(C)C)c(OCC(O)C(C)(C)C)c1 (stereo not drawn) |  |  | 74 |  | 
5 | CCC(CC)(c1ccc(OS(C)(=O)=O)c(C)c1)c1ccc(OCC(O)C(C)(C)C)c(OCC(O)C(C)(C)C)c1 (stereo not drawn) |  |  | 8 |  | 
6 | CCC(CC)(c1ccc(OS(=O)(=O)c2ccccc2)c(C)c1)c1ccc(OCC(O)C(C)(C)C)c(OCC(O)C(C)(C)C)c1 (stereo not drawn) |  |  | 23 |  | 
7 | CCC(CC)(c1ccc(OS(=O)(=O)c2ccc([N+](=O)[O-])cc2)c(C)c1)c1ccc(OCC(O)C(C)(C)C)c(OCC(O)C(C)(C)C)c1 (stereo not drawn) |  |  | 82 |  | 
8 | CCC(CC)(c1ccc(OCC(=O)O)c(C)c1)c1ccc(OCC(O)C(C)(C)C)c(OCC(O)C(C)(C)C)c1 (stereo not drawn) | inactive |  |  |  | 
9 | CCC(CC)(c1ccc(OCCCC(=O)O)c(C)c1)c1ccc(OCC(O)C(C)(C)C)c(OCC(O)C(C)(C)C)c1 (stereo not drawn) | inactive |  |  |  | 
10 | CCC(CC)(c1ccc(OS(=O)(=O)c2ccc(C)cc2)c(C)c1)c1ccc(OCC(O)C(C)(C)C)c(OCC(O)C(C)(C)C)c1 (stereo not drawn) |  |  | 137 |  | 
11 | CCC(CC)(c1ccc(OCCCCCO)c(C)c1)c1ccc(OCC(O)C(C)(C)C)c(OCC(O)C(C)(C)C)c1 (stereo not drawn) |  |  | 133 |  | 
12 | CCC(CC)(c1ccc(OS(=O)(=O)c2ccc(C)cc2)c(C)c1)c1ccc(OCC(=O)C(C)(C)C)c(OCC(=O)C(C)(C)C)c1 |  | Active | 85 | Active | 
13 | CCC(CC)(c1ccc(OCCO)c(C)c1)c1ccc(OCC(O)C(C)(C)C)c(OCC(O)C(C)(C)C)c1 (stereo not drawn) |  | Active | 128 | Active | 
14 | CCC(CC)(c1ccc(OCCCCCCC(=O)O)c(C)c1)c1ccc(OCC(O)C(C)(C)C)c(OCC(O)C(C)(C)C)c1 (stereo not drawn) | inactive |  |  |  | 
15 | CCC(CC)(c1ccc(OCCCCCCCO)c(C)c1)c1ccc(OCC(O)C(C)(C)C)c(OCC(O)C(C)(C)C)c1 (stereo not drawn) | inactive |  |  |  | 
16 | CCC(CC)(c1ccc(OCCCCO)c(C)c1)c1ccc(OCC(O)C(C)(C)C)c(OCC(O)C(C)(C)C)c1 (stereo not drawn) |  | Active | 189 | Active | Activity [21]: Dose-dependent effect
17 | CCC(CC)(c1ccc(OCC(O)CO)c(C)c1)c1ccc(OCC(O)C(C)(C)C)c(C)c1 (stereo not drawn) [LG-190178] |  | Active | 97 | Active | Activity [22]: Active; inhibition (Rattus norvegicus [5]): Active; inhibition (Rattus norvegicus [9]): Active
18 | C=C1/C(=C\C=C2/CCC[C@]3(C)[C@@H]([C@H](C)/C=C/[C@@H](O)C4CC4)CC[C@@H]23)C[C@@H](O)C[C@@H]1O [CALCIPOTRIENE] |  | Active | 100 | Active | Activity [22]: Active; inhibition (Rattus norvegicus [5]): Active; inhibition (Rattus norvegicus [9]): Active; Activity (Mus musculus [23]): Toxic; Activity (Mus musculus [24]): 0.37 µmol/mL
19 | CCC(CC)(c1ccc(OCC(O)CO)c(C)c1)c1ccc(OCC(O)C(C)(C)C)c(OCC(O)C(C)(C)C)c1 (stereo not drawn) |  |  | 147 |  | Activity [21]: Dose-dependent effect
